PMC4838304, “Effective Design of Multifunctional Peptides by Combining Compatible Functions” (PLoS Computational Biology, 2016)
Read-outs that look alike come from different tables or passages of the source.

Legend:
[1] = test system: pGREG546 plasmid; test: Electrophoretic mobility shift assay (EMSA), DNA retention; type: binding; conditions: for DNA binding in EMSA, in words: 1μg pGREG546, DNA to peptide charge ratio 1:1 or 1:4, 30 minutes
Excerpt: To test the ability of the designed peptides to bind nucleic acids, we evaluated by electrophoretic mobility shift assays (EMSAs) the retention of DNA by the designed peptides. Each EMSA was executed with peptide quantities that were multiples of the DNA to peptide charge ratio. A DNA to peptide charge ratio of 1:1 is represented by the number of positive charges of the peptide required to neutralize the negative charges of the DNA backbone. Retention in the gel is an indirect measure of the fraction of positive charges within the peptide participating in binding the DNA molecules. All EMSA assays were performed using the yeast plasmid pGREG546. As negative control, pGREG546 without any peptide was used, and as positive control the known DNA-binding cell penetrating peptide MPG was used. […] However, retention in the gel was observed when NLS was joined to any larger peptide fragment.
Fig 4 DNA binding. (A) Quantification of DNA retention obtained from three independent electrophoretic mobility shift assays. All measurements are shown and horizontal bars denote the sample mean. Representative gels are shown in (B-C).
1μg of pGREG546 plasmid was pre-incubated with the required quantity of each peptide to result in a 1:1 or 1:4 peptide charge to DNA charge ratio. Samples were incubated for 30 minutes and loaded on a 1% Agarose gel in SB buffer. DNA affinity was quantified by measuring the mean pixel intensity of the DNA bands with Fiji (http://fiji.sc) and normalizing to the intensity range between an empty spot on the gel and the intensity of the pGREG546 plasmid without any added peptide. Analysis scripts for the EMSA experiments as well as the raw data can be found with the distributed source code at http://bis.ifc.unam.mx/software/dcf.

[2] = test system: Escherichia coli strain DH5α; test: microbe, parasite or virus in culture; type: cell-based
Excerpt: If CPP, DNA binding and AMP activities are compatible, the designed peptides should inhibit bacterial growth. Here we exposed E. coli DH5α cells to varying low concentrations of the designed peptides as well as several controls (see Fig 4). […] To test whether α-factor was important for AMP activity we also tested pure α-factor, pure NLS, the optimized NLS fitting CPP rules (NLS-CE) and the Iztli-1 peptide, a previously reported peptide with an embedded α-factor specifically designed to have antibacterial activity. […] A linear trend could be observed between concentration and growth inhibition (regression lines with standard deviations shown in Fig 6). […] The minimal inhibitory concentrations for E. coli are reported in Table 2 (growth curves are shown in S4 Fig).
Fig 6 Antibacterial activity. DH5α E. coli cells were treated with varying concentrations of peptides ranging from 0 to 16 μM for the peptides and 0 to 48 μM for Ampicillin. The relative area under the growth curve measured the growth inhibition. Measurements from four repetitions distributed onto two different plates are shown as dots colored by their respective concentrations. Linear regressions are shown as blue lines and their respective standard errors as blue shades. Dashed lines indicate the mean area under the curve for the H2O controls and its 50% value respectively. Minimal inhibitory concentrations to achieve 50% or 100% of cell growth inhibition are reported.
Escherichia coli strain DH5α was grown for 12 hours to mid-log phase and diluted to 8·10^5 cells/ml by using the reference OD obtained by absorption spectroscopy. Each sample 100μL culture was treated with 50μL solution containing the respective peptide in the desired concentration or water in the case of the controls. Growth curves were measured on two 96 well half area plates with two replicates each followed for 24h using a plate reader (Synergy, USA). In order to minimize plate-specific effects due to variations in loading time or initial cell numbers, different plates measurements were normalized by the time-point where the water control samples reached their half-maximal OD before combining. The respective minimum from each growth curve was subtracted from the normalized data from individual or combined plates. Areas under the curves were obtained by applying a linear interpolation to the OD curves, which was then integrated exactly. Growth rates were obtained by log-transforming the growth curves, identifying the exponential phase by the linear parts in that log-transformation (OD600 between 0.05 and 0.5) and performing a linear regression in the exponential phase with the slope denoting the respective growth rate. All mentioned methodology was implemented in R (www.r-project.org) and is available as open source at http://github.com/cdiener/dcf.
Using the slope of the linear regressions determined in these experiments, we estimated the minimal inhibitory concentration (MIC) for E. coli of our 3 CPP designed peptides (α-NLS-C, NLS-α-CE and chimera) and tested it experimentally.

[3] = Circular dichroism, secondary structure content (CONTIN/LL); type: physicochemical; conditions: for Secondary Structure Random coil / Secondary Structure α-Helix / Secondary Structure β-Sheet: 0.3mg in 1mL, 20°C, far-UV CD, CONTIN/LL
Description: We studied the structural properties of the peptides in vitro, using circular dichroism (see Materials and Methods). The far-UV CD spectra for NLS-CE, NLS-α and NLS-α-CE in water matched the characteristics of a random coil conformation.
Circular dichroism spectra were recorded on a ChirascanTM CD Spectrometer (Applied Photophysics, UK) equipped with a peltier temperature controller. 0.3mg of each peptide was dissolved in 1mL of water or 50% aqueous trifluoroethanol and placed in quartz cuvettes of 0.1cm path length. Far-UV CD spectra were collected from 185 to 250 nm at 20°C. Spectra were averaged over 5 scans and the averaged blank spectra of solvents were subtracted. Ellipticity is reported as mean residue molar ellipticity and recorded in terms of molar elipticity [θ] (deg cm^2 dmol^−1). CONTIN/LL within the CDPro analysis software program was used to estimate the secondary structure content of the peptides.

[4] = test system: Escherichia coli strain DH5α; type: cell-based; conditions: 12 h
[5] = test system: pheromone-signaling pathway (Fus1-eGFP) in MATa cells; test: Pheromone signaling assay, Fus1-GFP expression and shmoo phenotype; type: cell-based, Saccharomyces cerevisiae; conditions: BY4741 fus1::eGFP, 60 μM peptide (20 μM for α-factor), 3h
Description: Finally, the activity of the α-factor embedded in the peptides was evaluated by activation of the pheromone-signaling pathway in MATa cells of S. cerevisiae. We monitored the pheromone signaling activity by following the expression of the GFP-labeled Fus1 protein. Fus1 is among the proteins with the highest pheromone-induced expression and is required for cell-cell fusion during mating. […] The observed phenotype was consistent with the activation of signaling showing a mating protrusion, often called “shmoo” as well as the absence of budding due to inhibition of the Cdc28 cyclin [35, 36].
Fig 5 Pheromone activity. The pheromone signaling pathway is confirmed by the expression of Fus1-GFP, characteristic “shmoo” phenotype and the absence of budding observed in differential interference contrast (DIC) bright field. Concentrations were 20 μM for α-factor and 60 μM for all other peptides. The negative control was water without any peptide.
Pheromone signaling induction in Saccharomyces cerevisiae was measured by induction of eGFP fluorescence in a BY4741 strain containing the Fus1-eGFP construct in place of the wild type Fus1 (MATa his3Δ1 leu2Δ0 met15Δ0 ura3Δ0 fus1::eGFP HIS3MX6, obtained from the yeast GFP collection). The BY4741 fus1::eGFP strain was grown overnight in YPD to mid-log phase and diluted to 10^6 cells/mL. Samples were treated with the respective peptide concentrations and incubated for 3h before mixing 1:1 with low-diffusivity agarose suspended on a covered glass slide. Images were taken with an Olympus FV10 confocal microscope using a 60x objective with […]. Images were analyzed using Fiji (www.fiji.sc). The only modifications applied to the images were separation of the bright field and GFP channels, adjustment of brightness and contrast to 50% and addition of scale bars.

[6] = E. coli DH5α, peptides 0 to 16 μM

QPKKKRKV [NLS, reference compound]
DNA binding in EMSA, in words [1]: not capable of binding DNA in low concentrations | antibacterial activity against E. coli, in words [2, 6]: no antibacterial activity

CC1(C)S[C@@H]2[C@H](NC(=O)[C@H](N)c3ccccc3)C(=O)N2[C@H]1C(=O)O [Ampicillin, reference compound]
MIC ([2]; Escherichia coli, E. coli DH5α, growth curves followed for 24h, relative area under the growth curve, read-out: E. coli MIC for 50% inhibition): > 48 µM | MIC ([2]; Escherichia coli, E. coli DH5α, predicted from linear regression and tested experimentally, read-out: E. coli MIC for 100% inhibition): 100 µM

WRFVWMNPKKKRKV [NLS-CE, optimized NLS fitting CPP rules]
DNA binding in EMSA, in words [1]: effective DNA-binding activity | Secondary Structure Random coil ([3]; 50% TFE): 61% | Secondary Structure α-Helix ([3]; 50% TFE): 5% | Secondary Structure β-Sheet ([3]; 50% TFE): 34% | Secondary Structure Random coil ([3]; water): 64% | Secondary Structure α-Helix ([3]; water): 6% | Secondary Structure β-Sheet ([3]; water): 31% | antibacterial activity against E. coli, in words [2, 6]: partial growth inhibition

CSCC[C@H](NC(=O)[C@@H]1CCCN1C(=O)[C@H](CCC(N)=O)NC(=O)CNC(=O)[C@@H]1CCCN1C(=O)[C@H](CCCCN)NC(=O)[C@H](CC(C)C)NC(=O)[C@H](CCC(N)=O)NC(=O)[C@H](CC(C)C)NC(=O)[C@H](Cc1c[nH]c2ccccc12)NC(=O)[C@H](Cc1c[nH]cn1)NC(=O)[C@H](Cc1c[nH]c2ccccc12)NC(=O)[C@H](Cc1ccccc1)NC(=O)[C@H](CCCNC(=N)N)NC(=O)[C@H](CC(N)=O)NC(=O)[C@H](CC(C)C)NC(=O)[C@H](Cc1ccccc1)NC(=O)[C@@H](N)CCCCN)C(=O)N[C@@H](Cc1ccc(O)cc1)C(=O)O [Iztli-1, reference compound]
DNA binding in EMSA, in words [1]: increased its affinity for DNA | MIC ([2]; DH5α, 24 h, read-out: E. coli MIC for 50% inhibition): 8 µM | antibacterial activity against E. coli, in words [2, 6]: very similar E. coli growth inhibition as NLS-α | E. coli MIC for 100% inhibition [4]: 20 µM | pheromone signaling activity (Fus1-GFP expression, phenotype) [5]: same phenotype

PKKKRKVWHWLQLKPGQPMY [NLS-α]
Secondary Structure Random coil ([3]; 50% TFE): 59% | Secondary Structure α-Helix ([3]; 50% TFE): 6% | Secondary Structure β-Sheet ([3]; 50% TFE): 35% | aggregation suggested by decrease in negative ellipticity ([3]; 50% TFE, CD spectra): TFE promoted aggregation of the peptides | Secondary Structure Random coil ([3]; water): 67% | Secondary Structure α-Helix ([3]; water): 5% | Secondary Structure β-Sheet ([3]; water): 28% | concentration showing partial growth inhibition [2, 6]: 4 µM | pheromone signaling activity (Fus1-GFP expression, phenotype) [5]: significant induction of expression of Fus1-GFP

WHWLQLKPGQPMY [α-factor, mating pheromone α-factor from S. cerevisiae, purchased from Sigma-Aldrich]
DNA binding in EMSA, in words [1]: weak ability to bind DNA | DNA retention ([1]; 1:4 DNA to peptide charge ratio, 1μg pGREG546, 30 minutes, 1% agarose gel): around 60% | antibacterial activity against E. coli, in words [2, 6]: no antibacterial activity
